Assay [1] addresses T1, AnGH71C (Aspergillus nidulans, UniProt G5EB58).
T1 construct: gene ANIA_07349; putative signal peptide removed; N-terminal His6 tag, modified pET-28a with TEV site; recombinant E. coli BL21 (DE3); IMAC and gel filtration
T1 sequence (G5EB58 23-431): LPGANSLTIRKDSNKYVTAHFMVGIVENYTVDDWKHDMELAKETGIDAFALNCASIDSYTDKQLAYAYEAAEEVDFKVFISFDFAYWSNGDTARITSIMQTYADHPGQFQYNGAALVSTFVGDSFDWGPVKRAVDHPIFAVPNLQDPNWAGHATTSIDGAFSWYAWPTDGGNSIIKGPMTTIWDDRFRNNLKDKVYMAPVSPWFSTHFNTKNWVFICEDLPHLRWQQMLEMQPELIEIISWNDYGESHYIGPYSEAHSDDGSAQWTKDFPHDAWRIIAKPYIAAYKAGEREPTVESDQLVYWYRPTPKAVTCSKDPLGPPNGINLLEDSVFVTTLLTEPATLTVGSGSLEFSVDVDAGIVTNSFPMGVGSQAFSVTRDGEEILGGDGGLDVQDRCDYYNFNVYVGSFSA
The assay can be described thus: X-ray crystal structure (soak), […] Å. The settings on record: crystal soaked 2 min with saturating ligand; two glucose molecules in the binding cleft per protein molecule.

Assay [2] concerns the target T1, AnGH71C. The assay can be described thus: X-ray crystal structure (soak), […] Å. Format: binding.

For the compound `OC[C@H]1OC(O)[C@H](O)[C@@H](O)[C@@H]1O` (stereo partly drawn) [glucose], on AnGH71C [1], the “X-ray crystal structure (soak), 1.37 Å” value was “glucose-soaked crystals each contain two glucose molecules located in the same position”.
For `OC[C@H]1O[C@H](O[C@@H]2[C@@H](O)[C@@H](O[C@@H]3[C@@H](O)[C@@H](O[C@H]4[C@H](O)[C@@H](CO)OC(O)[C@@H]4O)O[C@H](CO)[C@H]3O)O[C@H](CO)[C@H]2O)[C@H](O)[C@@H](O)[C@@H]1O` (stereo partly drawn) [nigerotetraose], the “X-ray crystal structure (soak), 1.92 Å” value on AnGH71C [2] (crystal soaked 2 min with saturating ligand, active-site cleft, -4 to -1 subsites among others, α- and β-anomers) was “Complexes of AnGH71C with glucose and nigerotriose/nigerotetraose were obtained by soaking crystals with ligand”.
`OC[C@H]1O[C@H](O[C@@H]2[C@@H](O)[C@@H](O[C@H]3[C@H](O)[C@@H](CO)OC(O)[C@@H]3O)O[C@H](CO)[C@H]2O)[C@H](O)[C@@H](O)[C@@H]1O` (stereo partly drawn) [nigerotriose]: the “X-ray crystal structure (soak), 1.92 Å” value at AnGH71C [2] (crystal soaked with nigerotetraose, nigerotriose in active-site cleft subsites, one extra on cleft surface in chain B) was “four protein molecules of the nigerotetraose-soaked crystals contain distinct combinations of nigerotriose and nigerotetraose”.
